Patent publication US20230142338A1, “THIOPHENYL DERIVATIVES USEFUL FOR MODULATING NUCLEIC ACID SPLICING” (REMIX THERAPEUTICS INC., priority 2020, published 2023)
Counter-ions that a name gives are not always drawn.

Key:
Type in all cases: cell-based
[1] = tested on: SMN2 CJ mRNA; assay: Gene panel canonical junction qPCR assay: SMN2; details: Table 3, concentration having 50% response in CJ decrease, read-out: SMN2 IC50 (decrease in CJ mRNA levels)
Procedure: (§1) Compounds described herein were used to modulate RNA transcript abundance in cells. The expression of a target mRNA was measured by detecting the formation of an exon-exon junction in the canonical transcript (CJ). A compound mediated exon-inclusion event was detected by observing an increase in formation of a new junction with an alternative exon (AJ). Real-time qPCR assays were used to detect these splicing switches and interrogate the potency of various compounds towards different target genes. A high-throughput real time quantitative PCR (RT-qPCR) assay was developed to measure these two isoforms of the mRNA (CJ and AJ) for an exemplary gene, HTT, together with a control housekeeping gene, GAPDH or GUSB or PPIA, used for normalization. Briefly, the A673 or K562 cell line was treated with various compounds described herein (e.g., compounds of Formula (I)). After treatment, the levels of the HTT mRNA targets were determined from each sample of cell lysate by cDNA synthesis followed by qPCR.
(§2) The A673 cell line was cultured in DMEM with 10% FBS. Cells were diluted with full growth media and plated in a 96-well plate (15,000 cells in 100 ul media per well). The plate was incubated at 37° C. with 5% CO2 for 24 hours to allow cells to adhere. An 11-point 3-fold serial dilution of the compounds was made in DMSO then diluted in media in an intermediate plate. Compounds were transferred from the intermediate plate to the cell plate with the top dose at a final concentration of 10 uM in the well. Final DMSO concentration was kept at or below 0.25%. The cell plate was returned to the incubator at 37° C. with 5% CO2 for an additional 24 hours.
(§3) The K562 cell line was cultured in IMDM with 10% FBS. For K562, cells were diluted with full growth media and plated in either a 96-well plate (50,000 cells in 50 uL media per well) or a 384-well plate (8,000-40,000 cells in 45 uL media per well). An 11-point 3-fold serial dilution of the compounds were made in DMSO then diluted in media in an intermediate plate. Compound was transferred from the intermediate plate to the cell plate with the top dose at a final concentration of 10 uM in the well. Final DMSO concentration was kept at or below 0.25%. Final volume was 100 uL for 96-well plate and 50 uL for 384-well plate. The cell plate was then placed in an incubator at 37° C. with 5% CO2 for 24 hours.
(§4) The cells were then gently washed with 50 uL-100 uL cold PBS before proceeding to addition of lysis buffer. 30 uL-50 uL of room temperature lysis buffer with DNAse I (and optionally RNAsin) was added to each well. Cells were shaken/mixed thoroughly at room temperature for 5-10 minutes for lysis to take place and then 3 uL-5 uL of room temperature stop solution was added and wells were shaken/mixed again. After 2-5 minutes, the cell lysate plate was transferred to ice for RT-qPCR reaction setup. The lysates could also be frozen at −80° C. for later use.
(§5) In some cases, a direct lysis buffer was used. An appropriate volume of 3× lysis buffer (10 mM Tris, 150 mM NaCl, 1.5%-2.5% Igepal and 0.1-1 U/uL RNAsin, pH 7.4) was directly added to either K562 or A673 cells in media and mixed by pipetting 3 times. The plates were then incubated at room temperature with shaking/rocking for 20-50 minutes to allow for lysis to take place. After this time, the cell lysate plate was transferred to ice to set up for the RT-qPCR reactions. The lysates could also be frozen at −80° C. for later use.
(§6) To set up 10 uL RT-qPCR reactions, cell lysates were transferred to 384-well qPCR plates containing the master mix according to the table below. The plates were sealed, gently vortexed, and spun down before the run. The volumes were adjusted accordingly in some instances where the reaction was carried in 20 uL. The table below summarizes the components of the RT-qPCR reactions:
(§7) The RT-qPCR reaction was performed using a QuantStudio (ThermoFisher) under the following fast cycling conditions. […]

[2] = tested on: HTT CJ mRNA; assay: Splicing assay (RT-qPCR): decrease in HTT canonical junction (CJ) mRNA; details: A673 or K562 cells, 24 hours treatment; concentration having 50% response in CJ mRNA decrease
Procedure: as §1, §2, §3, §4, §5, §6, §7

[3] = tested on: Target C CJ mRNA; assay: Gene panel canonical junction qPCR assay: Target C; details: Table 3, concentration having 50% response in CJ decrease, read-out: Target C IC50 (decrease in CJ mRNA levels)
Procedure: as §1, §2, §3, §4, §5, §6, §7

[4] = tested on: HTT AJ mRNA; assay: Splicing assay (RT-qPCR): increase in HTT alternative junction (AJ) mRNA; details: A673 or K562 cells, 24 hours treatment; concentration having 50% response in AJ mRNA increase
Procedure: as §1, §2, §3, §4, §5, §6, §7

[5] = tested on: HTT CJ mRNA; assay: Gene panel canonical junction qPCR assay: HTT; details: Table 3, concentration having 50% response in CJ decrease, read-out: HTT IC50 (decrease in CJ mRNA levels)
Procedure: as §1, §2, §3, §4, §5, §6, §7

| Structure (SMILES) | IC50 [1] | AC50 [2] | IC50 [3] | AC50 [4] | IC50 [5] |
| --- | --- | --- | --- | --- | --- |
| Cc1cn2cc(NC(=O)c3sc(C4CCNCC4)cc3F)c(C)cc2n1 [Compound 178, N-[2,7-dimethylimidazo[1,2-a]pyridin-6-yl]-3-fluoro-5-(piperidin-4-yl)thiophene-2-carboxamide] | 0.1 to 1 µM | 1 to 10 µM | > 0.01 µM | 1 to 10 µM | 1 to 10 µM |
| CC1CN(c2cc(F)c(C(=O)Nc3cc(F)c4cn(C)nc4c3)s2)CCN1 (stereo not drawn) [Compound 163, 3-fluoro-N-(4-fluoro-2-methylindazol-6-yl)-5-(3-methylpiperazin-1-yl)thiophene-2-carboxamide] | > 0.01 µM | > 10 µM | < 0.1 µM | > 10 µM | > 0.01 µM |
| Cc1nc2c(F)cc(NC(=O)c3sc(N4CCNC(C)C4)cc3F)cc2o1 (stereo not drawn) [Compound 164, 3-fluoro-N-(4-fluoro-2-methyl-1,3-benzoxazol-6-yl)-5-(3-methylpiperazin-1-yl)thiophene-2-carboxamide] | 0.1 to 1 µM | 1 to 10 µM | 0.1 to 1 µM | 1 to 10 µM | 1 to 10 µM |
| Cc1cn2cc(NC(=O)c3sc(N(C)C4CCN(C)CC4)cc3F)cc(F)c2n1 [Compound 150, 3-fluoro-N-[8-fluoro-2-methylimidazo[1,2-a]pyridin-6-yl]-5-[methyl(1-methylpiperidin-4-yl)amino]thiophene-2-carboxamide] | 1 to 10 µM | 1 to 10 µM | 1 to 10 µM | > 10 µM | 1 to 10 µM |
| COc1cc(C2CCNCC2)sc1C(=O)Nc1cc(F)c2nc(C)cn2c1 [Compound 173, N-[8-fluoro-2-methylimidazo [1,2-a]pyridin-6-yl]-3-methoxy-5-(piperidin-4-yl)thiophene-2-carboxamide] | > 0.01 µM | > 10 µM | > 0.01 µM | > 10 µM | > 0.01 µM |
| Cc1cn2cc(NC(=O)c3sc([C@@H]4CCN[C@H](C)C4)cc3F)cc(C(F)(F)F)c2n1 [Compound 196, 3-fluoro-N-[2-methyl-8-(trifluoromethyl)imidazo[1,2-a]pyridin-6-yl]-5-[(cis-)-2-methylpiperidin-4-yl]thiophene-2-carboxamide] | 0.1 to 1 µM | 1 to 10 µM | > 0.01 µM | > 10 µM | 1 to 10 µM |
| Cc1cn2cc(NC(=O)c3sc(N4CCNC(C)(C)C4)cc3F)cc(F)c2n1 [Compound 131, 5-(3,3-dimethylpiperazin-1-yl)-3-fluoro-N-[8-fluoro-2-methylimidazo[1,2-a]pyridin-6-yl] thiophene-2-carboxamide] | 0.1 to 1 µM | 1 to 10 µM | > 0.01 µM | 1 to 10 µM | 1 to 10 µM |
| Cc1cn2nc(NC(=O)c3sc(N4CCNC(C)C4)cc3F)nc2c(C)n1 (stereo not drawn) [Compound 169, hydrochloride] | > 0.01 µM | > 10 µM | > 0.01 µM | > 10 µM | > 0.01 µM |
| CCN1CCC(c2cc(F)c(C(=O)Nc3cc(F)c4nc(C)cn4c3)s2)CC1 [Compound 146, 5-(1-ethylpiperidin-4-yl)-3-fluoro-N-[8-fluoro-2-methylimidazo[1,2-a]pyridin-6-yl]thiophene-2-carboxamide] | 0.1 to 1 µM | 1 to 10 µM | < 0.1 µM | 1 to 10 µM | 1 to 10 µM |
